The values that follow come from patent publication US20020119898A1, “Fabric cleaning system” (Unilever Home & Personal Care USA, Division of Conopco, Inc., priority 2000, published 2002).

The series is described as follows: pKa of Brönsted acidic or basic functional groups of the fluorescer. Particulars: functional groups comprised in the fluorescer. The series is classed as physicochemical. The source says:
In addition, a preferred group of […] can be described by the presence and pKa of certain functional groups in the fluorescer. Therefore, a preferred group of hydrophilic fluorescers comprises fluorescers having at least one or more Brönsted acidic, basic functional groups or mixtures thereof with a pKa of 7 or less. A Brönsted acidic functional group is generally defined as a —AH group having a pKa of 7 or less for the equilibrium dissociation constant Ka=[—A][H′]/[—AH]. Likewise a Brönsted basic functional group is generally defined as a —B group, the conjugate acid of it (i.e. BH^+) having a pKa of 7 or less for the equilibrium dissociation constant Ka=[—B][H^+]/[—BH^+]. Examples of acidic functional groups include sulphonate, carboxylate, sulphate, phosphate, phosphonate and phosphinate. Examples of basic functional groups include amino groups, primary, secondary and tertiary amine groups.

Structures are written as SMILES. Where only a bound is given, the exact number is not on record here.

`O=S(=O)([O-])c1ccccc1C=Cc1ccc(-c2ccc(C=Cc3ccccc3S(=O)(=O)[O-])cc2)cc1.[Na+].[Na+]` [TINOPAL™ CBS-X]: the “pKa of functional groups” value is listed as less than 7.
